According to patent US11174234B2, “Crystal form of 4-phenylthiazole derivative and preparation method thereof” (SICHUAN KELUN PHARMACEUTICAL RESEARCH INSTITUTE CO., LTD., priority 2018, dated 2021):
In brackets after ≈: the same amount, converted by molar mass. Blank lines part the entries; values can stand above or below the molecule they belong to.

Tests used:
[1] = Pharmacokinetic study in dogs; type: in vivo; conditions: administered to dogs
[2] = Pharmacokinetic study in monkeys; type: in vivo; conditions: administered to monkeys
[3] = Thermogravimetric Analysis (TGA); type: physicochemical; conditions: heating rate 10K/min, N2 purge, 35-500° C.
Protocol: “Thermogravimetric Analysis (TGA)” is a common method for determining the thermal stability of compounds. The TGA curve can be measured, for example, on a Mettler Toledo TGA1 instrument. The error of TGA may be within about ±0.5 wt %. The term “substantially identical” means that such error variations are considered. Exemplary test conditions are: temperature range is 35-500° C., heating rate is 10 K/min, and purge gas is nitrogen (99.99%).
TGA is collected on Mettler Toledo TGA1 Thermogravimetric Analyzer, purge gas is N2 (99.99%), 100 ml/min; heating rate: 10K/min; temperature range: 35-500° C.
In the curve, the sample began to decompose at about 230° C. and no weight loss was found before decomposition.

[4] = High temperature stability test; type: physicochemical; conditions: 60° C.; for Purity Change: sealed glass bottle
Text: (§1) In this Experimental Example, high temperature, high humidity tests were used to study the chemical stability of the crystal form according to the invention.
(§2) Purity test: HPLC method (Chinese Pharmacopoeia 2015, Volume IV, general principles 0512)
(§3) Chromatographic column: octadecyl silane bonded silica gel as filler
(§4) Mobile phase A: 0.02 mol/L phosphate buffer (pH 3.0)-methanol-acetonitrile
(§5) Mobile phase B: methanol-acetonitrile-water
(§6) Detection wavelength: 215 nm.
(§7) Elution condition: gradient elution
The Crystal Form D of the compound of formula I was placed in a sealed and clean glass bottle and placed in 60° C. constant temperature oven. Samples were taken 10 day/30 day respectively for impurity content determination.
(§8) Note: Purity Change=(Difference of sample purity at day 0 and sample purity after a certain period)/Sample purity at day 0×100%.

[5] = Long-term and accelerated stability test; type: physicochemical
Text: as §2, §3, §4, §5, §6, §7
The Crystal Form D of the compound of formula I was packed with inner bag (pharmaceutical low density polyethylene bag) and outer bag (pharmaceutical polyester/aluminum/polyethylene composite film bag), placed under the following stability testing conditions for stability tests.

[6] = High humidity stability test; type: physicochemical; conditions: RH 92.5%; for Weight loss on drying / Purity Change: room temperature; for Purity Change: open dish
Text: as §1, §2, §3, §4, §5, §6, §7
Weight loss on drying assay: Chinese Pharmacopoeia 2015, Volume IV, general principles 0831
as §8
The Crystal Form D of the compound of formula I was spread in open petri dish with thickness ≤5 mm, at room temperature, in constant temperature incubator of relative humidity (RH) 92.5%. Samples were taken 10 day/30 day for impurity content determination.

[7] = Pharmacokinetic study in mice; type: in vivo; conditions: administered to mice
[8] = Solubility test (HPLC external standard method); type: physicochemical
Protocol: In this Experimental Example, the solubility of two crystal form in different pH of simulated human gastric juice were tested to study the solubility of the crystal forms.
Solubility test: HPLC external standard method
as §3
Mobile phase: phosphate buffer (pH3.5):methanol:acetonitrile=2:9:9 (volume ratio)
Detection wavelength: 215 nm
Excess amount of Crystal Form D and Crystal Form Y were placed in tubes with plug, to which were added 10 ml of water (purified water), hydrochloric acid solution of pH 1.2, hydrochloric acid solution of pH 2.0, acetate buffer of pH 4.0, phosphate buffers of pH 4.5, 5.0, 6.8, 8.0, respectively, and vibrated on 37° C. water bath, then filtered. The subsequent filtrate was subjected to HPLC assay.
The preparations of various pH buffers can be referred to “Guideline for Dissolution Test of Normal Oral Solid Formulation” issued by Center for Drug Evaluation of China Food and Drug Administration for dissolution medium, and are detailed as follows:
The hydrochloric acid solution of pH 1.2 is prepared by diluting 7.65 ml of hydrochloric acid with water to 1000 ml and mixing well.
The hydrochloric acid solution of pH 2.0 is prepared by diluting 1.17 ml of hydrochloric acid with water to 1000 ml and mixing well.
The acetate buffer of pH 4.0 is prepared by diluting mixture of 1.22 g of sodium acetate with 20.5 ml of 2 mol/L acetic acid solution with water to 1000 ml and mixing well. The 2 mol/L acetic acid solution is prepared by diluting 114 mL of glacial acetic acid with water to 1000 ml.
The phosphate buffers of pH 4.5, 5.0, 6.8, 8.0 are prepared by adjusting pH of 0.2 mol/L monopotassium phosphate solution with 0.2 mol/L sodium hydroxide solution to pH 4.5, 5.0, 6.8, 8.0, respectively. The 0.2 mol/L monopotassium phosphate solution is prepared by dissolving 27.22 g of monopotassium phosphate in water and diluting to 1000 mL. The 0.2 mol/L sodium hydroxide solution is prepared by dissolving 8.00 g of sodium hydroxide in water and diluting to 1000 mL.

[9] = high temperature condition, up to 30 day
[10] = high humidity condition, up to 30 day
[11] = hydrochloric acid solution pH 1.2, 37° C.
[12] = hydrochloric acid solution pH 2.0, 37° C.
[13] = phosphate buffer pH 4.5, 37° C.
[14] = phosphate buffer pH 5.0, 37° C.
[15] = phosphate buffer pH 6.8, 37° C.
[16] = phosphate buffer pH 8.0, 37° C.

Pharmacokinetic properties [1]: good pharmacokinetic properties
Pharmacokinetic properties [2]: good pharmacokinetic properties
Temperature at which the sample began to decompose (TGA) [3]: about 230 °C
Purity Change ([4]; 10 day): 0.04%
Purity Change ([4]; 30 day): 0.03%
Change in crystal form (XRPD) [4, 9]: no change in crystal form
Change in purity (in words) [4, 9]: did not show obvious change in purity
Change in purity or crystal form (in words) ([5]; 6 month or more under long-term and accelerated conditions): no change in purity or crystal form
Chemical purity ([5]; Accelerated (40° C. ± 2° C./RH75% ± 5%), 0 day): 99.83%
Chemical purity ([5]; Accelerated (40° C. ± 2° C./RH75% ± 5%), 6 month): 99.83%
Chemical purity ([5]; Long-term (25° C. ± 2° C./RH60% ± 5%), 0 day): 99.83%
Chemical purity ([5]; Long-term (25° C. ± 2° C./RH60% ± 5%), 6 month): 99.83%
Chemical purity ([5]; Long-term (30° C. ± 2° C./RH65% ± 5%), 0 day): 99.83%
Chemical purity ([5]; Long-term (30° C. ± 2° C./RH65% ± 5%), 6 month): 99.83%
Weight loss on drying ([6]; 0 day): 0.31%
Weight loss on drying ([6]; 10 day): 0.35%
Weight loss on drying ([6]; 30 day): 0.36%
Purity Change ([6]; 10 day): 0.05%
Purity Change ([6]; 30 day): 0%
Change in crystal form (XRPD) [6, 10]: no change in crystal form
Change in purity (in words) [6, 10]: did not show obvious change in purity
Change in weight loss on drying (in words) [6, 10]: little change in weight loss on drying
Pharmacokinetic properties [7]: good pharmacokinetic properties
Solubility ([8]; acetate buffer pH 4.0, 37° C.): 10.6478 µg/mL (≈ 18 µM)
Solubility [8, 11]: 19.1353 µg/mL (≈ 32.3 µM)
Solubility [8, 12]: 14.5872 µg/mL (≈ 24.7 µM)
Solubility [8, 13]: 11.4829 µg/mL (≈ 19.4 µM)
Solubility [8, 14]: 13.8229 µg/mL (≈ 23.4 µM)
Solubility [8, 15]: 36.0017 µg/mL (≈ 60.9 µM)
Solubility [8, 16]: 110.5589 µg/mL (≈ 187 µM)
Solubility ([8]; water (purified water), 37° C.): 41.3607 µg/mL (≈ 69.9 µM)
Compound: CCCCCCO[C@@H](C)c1cccc(-c2csc(NC(=O)c3cc(Cl)c(/C=C(\C)C(=O)O)c(Cl)c3)n2)c1OC [Crystal Form D, 4-phenylthiazole derivative]
Solubility compared with Crystal Form Y ([8]; simulated human gastric juice with various pH): significantly better than that of Crystal Form Y

Solubility ([8]; acetate buffer pH 4.0, 37° C.): 0.4327 µg/mL (≈ 0.731 µM)
Solubility [8, 11]: 0.7616 µg/mL (≈ 1.29 µM)
Solubility [8, 12]: 0.4915 µg/mL (≈ 0.831 µM)
Solubility [8, 13]: 0.5623 µg/mL (≈ 0.951 µM)
Solubility [8, 14]: 0.6993 µg/mL (≈ 1.18 µM)
Solubility [8, 15]: 3.2046 µg/mL (≈ 5.42 µM)
Solubility [8, 16]: 43.0713 µg/mL (≈ 72.8 µM)
Solubility ([8]; water (purified water), 37° C.): 5.2325 µg/mL (≈ 8.85 µM)
Compound: CCCCCCO[C@@H](C)c1cccc(-c2csc(NC(=O)c3cc(Cl)c(/C=C(\C)C(=O)O)c(Cl)c3)n2)c1OC [Crystal Form Y, 4-phenylthiazole derivative]
